Results: patent publication US20070060586A1, “Nitrooxyderivatives of antihypertensive drugs” (priority 2003, published 2007)
Counter-ions that a name gives are not always drawn.

System: PC12 cells
Assay: Measurements of cGMP in rat PC12 cell line (intracellular cGMP formation, enzyme immunoassay)
Format: cell-based
Conditions: for EC50: PC-12, 0.75 h
Description: Measurements of CGMP in Rat PC12 Cell Line.
cGMP contributes to the function and interaction of several vascular cell types and its dysfunction is involved in major cardiovascular diseases such as hypertension, diabetic complications, atherosclerosis, and tissue infarction. Therefore the extent of cGMP formation elicited by the compounds of the inventions was evaluated in the rat pheochromocytoma (PC12) cell line.
Cells were maintained at 37° C. in DMEM medium enriched with 10% horse serum and 5% foetal bovine serum under 5% CO2 atmosphere. At the time of experiments the cells were washed once with Hank's Balanced Salt Solution (HBSS) supplemented with 0.05% ascorbic acid and preincubated in the same buffer for 10 min in a floating water bath. After the preincubation step, cells were exposed for additional 45 min to either control conditions or increasing concentrations of test compounds ranging from 0.1 to 25 μM, in the presence of the phosphodiesterase inhibitor, IBMX (100 μM) and the NO-independent activator of soluble guanylyl cyclase, YC-1 (20 μM). The reaction was terminated by the removal of the incubating buffer and consecutive addition of 100 μl of absolute ethanol. The organic extracts were then evaporated to dryness and the residues dissolved in aqueous buffer for quantitative determination of intracellular cGMP levels using the cGMP enzyme immunoassay kit.
The obtained results reported in Table 1 are expressed as EC50 (μM) and efficacy Emax (% of vehicle). As shown in the table the nitroderivatives of timolol elicited consistent increase of intracellular cGMP formation in PC12 cell line.

[1] = 45 min exposure, 0.1 to 25 μM, in the presence of IBMX (100 μM) and YC-1 (20 μM)

`CC(C)(C)NCC(COc1nsnc1N1CCOCC1)OC(=O)c1ccc(CO[N+](=O)[O-])cc1.O=C(O)/C=C\C(=O)O` [Compound of example 1, 4-(Nitrooxymethyl)benzoic acid (S)-1-[(1,1-dimethylethyl)amino]-3-[[4-(4-morpholinyl)-1,2,5thiadiazol-3-yl]oxy]-2-propanoate maleate salt] was tested, and the “Emax (% of vehicle), cGMP formation in PC12 cells” value (“Emax (% of vehicle)” for short) [1] was 796 % of vehicle.

`CC(C)(C)NC[C@@H](COc1nsnc1N1CCOCC1)OC(=O)c1ccc(CO[N+](=O)[O-])cc1` [Compound of example 1, 4-(Nitrooxymethyl)benzoic acid (S)-1-[(1,1-dimethylethyl)amino]-3-[[4-(4-morpholinyl)-1,2,5thiadiazol-3-yl]oxy]-2-propanoate maleate salt] gave an EC50 [1] of 12.6 µM.

With `CC(C)(C)N(CC(COc1nsnc1N1CCOCC1)OC(=O)c1ccc(CO[N+](=O)[O-])cc1)C(=O)c1ccc(CO[N+](=O)[O-])cc1` [Compound of example 2, 4-(Nitrooxymethyl)benzoic acid (S)-1-[(1,1-dimethylethyl)[(4-nitrooxymethyl)benzoyl]amino]-3-[[4-(4-morpholinyl)-1,2,5-thiadiazol-3-yl]oxy]-2-propanoate] the “Emax (% of vehicle)” value [1] was 480 % of vehicle and the EC50 [1] was 1.3 µM.

For `CC(C)(C)N(C[C@H](O)COc1nsnc1N1CCOCC1)C(=O)c1ccc(CO[N+](=O)[O-])cc1` [Compound of example 3, (S)-1-[(1,1-dimethylethyl)[(4-nitrooxymethyl)benzoyl]amino]-3-[[4-(4-morpholinyl)-1,2,5-thiadiazol-3-yl]oxy]-2-propanol], the “Emax (% of vehicle)” value [1] was 866 % of vehicle and the EC50 [1] was 18.5 µM.

For `CC(C)(C)NC[C@H](O)COc1nsnc1N1CCOCC1` [Timolol, reference compound], the “EC50, cGMP formation in PC12 cells” value [1] was “Not effective”, the “Emax (% of vehicle)” value [1] was “Not effective” and the “increase of intracellular cGMP formation in PC12 cell line (in words)” value (summary statement to Table 1) was “this effect was not shared”.
